# From patent publication US6994841B1, “Relating to magnetic resonance imaging” (Kucharczyk and Moseley Partners, priority 1990, dated 2006)
# Assays:
# mice = experiment: LD50 i.v. administration in mice; assay type: in vivo
# [1] = tested on: cat brain after right middle cerebral artery (MCA) occlusion; experiment: DyDTPA-BMA-enhanced T2-weighted spin-echo MRI of cerebral perfusion deficit after MCA occlusion; assay type: in vivo; settings: for signal difference between ischemic and contralateral control tissue: mean ± S.E.M.
# Description: Young adult cats weighing 2.0 to 4.5 kg were anaesthetized with 30 mg/kg i.v. Nembutal. Polyethylene catheters were placed in the femoral artery and vein for blood pressure monitoring and drug administration. The right middle cerebral artery (MCA) was isolated via the transorbital approach and occluded just proximal to the origin of the lateral striate arteries with bipolar electrocautery followed by complete surgical transection. The dural incision and orbit were covered with saline moistened gauze and absorbable gelatin sponge.
# A General Electric CSI (2 Tesla) unit, equipped with Acustar S-150 self-shielded gradient coils (+20 gauss/cm, 15 cm bore size) was used. MRI was performed with an 8.5 cm inner-diameter low-pass birdcage proton imaging coil. Successive multislice T2-weighted coronal images were obtained for up to 12 hours following occlusion. Spin-echo T2-weighted images (TR 2800, TE 80 and 160, 3 mm slices, 1 mm gap) were obtained with a field-of-view (FOV) of 80 mm in which two scans were averaged for each one of the 128 phase-encoding steps resulting in a total acquisition time of 12 minutes.
# In order to evaluate the anatomic region of perfusion deficiency following MCA occlusion, cats were injected with a non-ionic T2*-shortening contrast agent, DyDTPA-BMA. The DyDTPA-BMA complex was prepared by refluxing an aqueous suspension containing stoichiometric amounts of dysprosium oxide and DTPA-BMA. The contrast agent was infused i.v. at doses of 0.25, 0.5 or 1.0 mmol/kg beginning at phase-encoding step #32 and finishing at step #60 (approximately 3 min) of T2-weighted image acquisition. DyDTPA-BMA injections were given at different time points post MCA occlusion in individual cats. After injection, the magnetic susceptibility effect was quantified for up to 60 minutes in both ischemic and normal hemispheres by comparing region-of-interest (ROI) intensity to pre-contrast T2-weighted ROI intensities. […] A signal intensity ratio was calculated as the ROI image intensity ratio of an abnormal, ischemic region over that of the normal, contralateral side. Results were expressed as the mean percentage change ±Standard Error of the Mean (X±S.E.M.)
# At the conclusion of the MR protocol, 15 ml/kg of a 2% solution of 2,3,5-triphenyl tetrazolium chloride (TTC) was infused transcardially. The brain was removed from the cranium after 10–20 minutes, immersed in a 2% TTC solution for another 10–20 minutes, and then stored overnight in 10% buffered formalin in a light shielded container. The brain was sectioned coronally (2–3 mm slices) from 24–36 hours later and immediately examined for histologic evidence of ischemic damage as evidenced by pallor of TTC-staining.
smiles,measurement,setting,value
CNC(=O)CN(CCN(CCN(CC(=O)[O-])CC(=O)NC)CC(=O)[O-])CC(=O)[O-].[Dy+3] [DyDTPA-BMA],LD50,mice,34 mmol/kg
same,Onset of signal hypertensity (relative to pre-contrast T2-weighted image): Earlier (number of cats),"[1]; 0.25 mmol/kg, 5 cats tested",1
same,Onset of signal hypertensity (relative to pre-contrast T2-weighted image): Later (number of cats),"[1]; 0.25 mmol/kg, 5 cats tested",0
same,Onset of signal hypertensity (relative to pre-contrast T2-weighted image): Same Time (number of cats),"[1]; 0.25 mmol/kg, 5 cats tested",4
same,Signal intensity ratio of injured to contralateral control tissue (relative to pre-contrast T2 weighted image): Better (number of injections),"[1]; 0.25 mmol/kg, 5 injections",4
same,Signal intensity ratio of injured to contralateral control tissue (relative to pre-contrast T2 weighted image): Same (number of injections),"[1]; 0.25 mmol/kg, 5 injections",1
same,Signal intensity ratio of injured to contralateral control tissue (relative to pre-contrast T2 weighted image): Worse (number of injections),"[1]; 0.25 mmol/kg, 5 injections",0
same,maximum signal intensity losses,"[1]; 0.5 mmol/kg i.v., gray matter of normal non-occluded cerebral hemisphere, first 15 minutes after injection",35%
same,Onset of signal hypertensity (relative to pre-contrast T2-weighted image): Earlier (number of cats),"[1]; 0.50 mmol/kg, 16 cats tested",12
same,Onset of signal hypertensity (relative to pre-contrast T2-weighted image): Later (number of cats),"[1]; 0.50 mmol/kg, 16 cats tested",0
same,Onset of signal hypertensity (relative to pre-contrast T2-weighted image): Same Time (number of cats),"[1]; 0.50 mmol/kg, 16 cats tested",4
same,Signal intensity ratio of injured to contralateral control tissue (relative to pre-contrast T2 weighted image): Better (number of injections),"[1]; 0.50 mmol/kg, 23 injections",17
same,Signal intensity ratio of injured to contralateral control tissue (relative to pre-contrast T2 weighted image): Same (number of injections),"[1]; 0.50 mmol/kg, 23 injections",6
same,Signal intensity ratio of injured to contralateral control tissue (relative to pre-contrast T2 weighted image): Worse (number of injections),"[1]; 0.50 mmol/kg, 23 injections",0
same,Onset of signal hypertensity (relative to pre-contrast T2-weighted image): Earlier (number of cats),"[1]; 1.0 mmol/kg, 6 cats tested",4
same,Onset of signal hypertensity (relative to pre-contrast T2-weighted image): Later (number of cats),"[1]; 1.0 mmol/kg, 6 cats tested",0
same,Onset of signal hypertensity (relative to pre-contrast T2-weighted image): Same Time (number of cats),"[1]; 1.0 mmol/kg, 6 cats tested",2
same,Signal intensity ratio of injured to contralateral control tissue (relative to pre-contrast T2 weighted image): Better (number of injections),"[1]; 1.0 mmol/kg, 16 injections",14
same,Signal intensity ratio of injured to contralateral control tissue (relative to pre-contrast T2 weighted image): Same (number of injections),"[1]; 1.0 mmol/kg, 16 injections",2
same,Signal intensity ratio of injured to contralateral control tissue (relative to pre-contrast T2 weighted image): Worse (number of injections),"[1]; 1.0 mmol/kg, 16 injections",0
same,"signal intensity recovery, of pre-contrast control values","[1]; 45 minutes after administration, all cerebral tissues",at least 90%
same,signal difference between ischemic and contralateral control tissue,[1]; basal ganglia,26±8%
same,time post-occlusion at which relative hyperintensity was found in occluded basal ganglia (as early as),[1]; both 1 mmol/kg and 0.5 mmol/kg dosages,30 min
same,difference in immediate post-contrast signal intensity on increasing dosage,[1]; dosage increased from 0.5 to 1.0 mmol/kg,only a minimal difference
same,signal difference between ischemic and contralateral control tissue,[1]; gray matter in the inferior parietal gyrus,42±14%
same,signal difference between ischemic and contralateral control tissue,[1]; white matter in the internal capsule,5±4%
